According to ChEMBL document CHEMBL3596164, “Inhibitory effects of hydroxylated cinnamoyl esters on lipid absorption and accumulation” (Bioorg Med Chem, 2015):
Calls of active or inactive are those of the source. No cut-off for these calls is given here.

Columns and labels:
[1] = molecular target: T1, Pancreatic triacylglycerol lipase (Sus scrofa) (UniProt P00591); test: Inhibition of pig pancreatic lipase at 30 uM after 10 mins by spectrophotometry relative to control
T1 sequence (whole entry): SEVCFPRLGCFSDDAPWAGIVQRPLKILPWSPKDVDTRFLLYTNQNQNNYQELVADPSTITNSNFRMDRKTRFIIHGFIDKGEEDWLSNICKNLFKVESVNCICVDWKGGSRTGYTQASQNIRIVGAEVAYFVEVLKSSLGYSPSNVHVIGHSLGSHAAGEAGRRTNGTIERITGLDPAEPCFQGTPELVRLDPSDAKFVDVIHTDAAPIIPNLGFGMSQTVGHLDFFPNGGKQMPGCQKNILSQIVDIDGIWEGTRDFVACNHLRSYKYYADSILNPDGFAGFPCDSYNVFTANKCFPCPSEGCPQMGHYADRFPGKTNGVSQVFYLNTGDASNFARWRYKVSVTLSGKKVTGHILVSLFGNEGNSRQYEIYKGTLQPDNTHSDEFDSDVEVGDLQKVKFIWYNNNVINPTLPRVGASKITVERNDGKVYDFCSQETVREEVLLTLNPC

3T3-L1 = test: (§1) Antiobesity activity in mouse 3T3L1 cells assessed as suppression of DIM-stimulated lipid accumulation at 4 uM after 7 days by Oil Red O staining method relative to control; format: functional
[2] = molecular target: T1, Pancreatic triacylglycerol lipase (Sus scrofa); test: Inhibition of pig pancreatic lipase after 10 mins by spectrophotometry relative to control
Mus musculus [3] = test: Reduction in plasma triglyceride level in corn oil-fed po dosed ddY mouse after 2 to 6 hrs relative to control; format: functional, organism-based
Mus musculus [4] = test: Reduction in plasma triglyceride level in corn oil-fed ddY mouse at 30 mg/kg, po after 2 to 6 hrs relative to control; format: functional; design: scale not given: the % may be the effect or the level left
Mus musculus [5] = test: Reduction in plasma triglyceride level in corn oil-fed ddY mouse at 150 mg/kg, po after 2 to 6 hrs relative to control; format: functional; design: scale not given: the % may be the effect or the level left
[6] = Cytotoxicity against mouse 3T3L1 cells at 1 to 4 uM after 7 days by MTT assay; format: cell-based; settings: 3t3-l1, 168 h
[7] = as §1; format: functional; settings: 3T3-L1, 168 h
[8] = Antiobesity activity in mouse 3T3L1 cells assessed as suppression of DIM-stimulated lipid accumulation at 25 to 50 uM after 7 days by Oil Red O staining method relative to control; format: functional, 3T3-L1

| SMILES | inhibition [1] | inhibition (3T3-L1) | ED50 [2] | inhibition [2] | Activity (Mus musculus [3]) | Activity (Mus musculus [4]) | Activity (Mus musculus [5]) | Activity [6] | inhibition at 4 µM [7] | inhibition (INH) [8] |
| --- | --- | --- | --- | --- | --- | --- | --- | --- | --- | --- |
| O=C(/C=C/c1ccc(O)cc1)OCCc1ccccc1 | inactive | inactive |  |  |  |  |  |  |  |  |
| CCCCCCCCCCOC(=O)/C=C/c1ccc(O)c(O)c1 | 38% |  | > 40 µM | Dose-dependent effect | Dose-dependent effect | 78% | 69% | Non-toxic | 71% |  |
| CC(C)=CCC/C(C)=C/COC(=O)/C=C/c1ccc(O)c(O)c1 [GERANYL CAFFEATE] | 62% |  |  |  |  |  |  | Non-toxic | 20% |  |
| CCCCCCCCCCOC(=O)/C=C/c1ccc(O)cc1 | inactive | inactive |  |  |  |  |  |  |  |  |
| CCCCCCCCCCOC(=O)/C=C/c1cc(O)c(O)c(O)c1 | 92% |  | 0.9 µM | Dose-dependent effect | Dose-dependent effect | 73% | 57% |  | 84% |  |
| O=C(/C=C/c1ccc(O)c(O)c1)OCCCCCCc1ccccc1 | 54% |  | 22 µM | Dose-dependent effect |  |  |  | Non-toxic | 46% |  |
| CCCCCCCCCCOC(=O)/C=C/c1cccc(O)c1 | inactive | inactive |  |  |  |  |  |  |  |  |
| O=C(/C=C/c1ccc(O)cc1)OCCCCCCc1ccccc1 | inactive | inactive |  |  |  |  |  |  |  |  |
| O=C(/C=C/c1ccc(O)c(O)c1)OCCc1ccccc1 [CAFFEIC ACID PHENETHYL ESTER] | 62% |  | 10 µM | Dose-dependent effect |  |  |  | Non-toxic | 11% | 24% |
